Assay results taken from patent US20140050805A1, “COMPOSITION, GLUCOSE METABOLISM-IMPROVING AGENT, AND METHOD FOR IMPROVING GLUCOSE METABOLISM” (Lion Corporation, priority 2011, published 2014).

Legend:
[1] = tested on: Hyperglycemia model mice (KKAy mice); experiment: Blood glucose level in hyperglycemia model mice (KKAy) bred on high fat diet mixed feed for 5 days; assay type: in vivo, mouse
Procedure: (§1) The blood glucose level was measured with a simplified blood glucose level measuring system (trade name: CYCLIC GB SENSOR, product of Sanko Junyaku Co., Ltd.).
Mixed feeds of Examples 4 to 7 and Comparative Examples 6 to 8 were prepared by mixing a commercially available high fat diet (trade name: Quick Fat, product of CLEA Japan, Inc.) with the acid-treated Panax notoginseng product produced in Production Example 1 and at least one of Piper longum extract (trade name, LONG PEPPER EXTRACT POWDER MF, composition: 10% by mass of a hot water extract of Piper longum, 90% by mass of dextrin, product of MARUZEN PHARMACEUTICALS CO., LTD.) and vitamin B1 nitrate (product of Wako Pure Chemical Industries, Ltd.) in respective amounts shown in the following Table 2. The mixed feed of Example 8 was prepared by using Panax notoginseng powder (product of MATSUURA YAKUGYO CO., LTD.) instead of the acid-treated Panax notoginseng product of Example 4. The above commercially available high fat diet only was used in Comparative Example 5.
Hyperglycemia model mice (KKAy mice (obtained from CLEA Japan, Inc.), 20 weeks old, 5 mice/group) were given ad libitum each of the mixed feeds of Examples 4 to 8 and Comparative Examples 5 to 8 to breed them for 5 days.
(§2) The blood glucose levels at 10 a.m. were measured in the same manner as in Example 1, before giving the mixed feed to the hyperglycemia model mice (before the start of breeding with the mixed feed) and after giving the mixed feed to the hyperglycemia model mice for 5 days (after the breeding with the mixed feed). A significance test was performed using the Dunnett's multiple test.

[2] = tested on: Hyperglycemia model mice (TSOD mouse); experiment: Blood glucose level in hyperglycemia model mice (TSOD) bred on mixed feed for 5 days; assay type: in vivo
Procedure: Mixed feeds of Examples 1 to 3 and Comparative Examples 1 to 4 were prepared by mixing a commercially available feed (trade name: D12450B, product of Research Diet Co.) with Panax notoginseng powder (product of MATSUURA YAKUGYO CO., LTD.) and at least one of Piper longum extract (trade name, LONG PEPPER EXTRACT POWDER MF, composition: 10% by mass of a hot water extract of Piper longum, 90% by mass of dextrin, product of MARUZEN PHARMACEUTICALS CO., LTD.) and vitamin B1 nitrate (product of Wako Pure Chemical Industries, Ltd.) in respective amounts shown in the following Table 1. The above commercially available feed only was used in Comparative Example 4.
Hyperglycemia model mice (TSOD mouse (obtained from Institute for Animal Reproduction), 14 weeks old, 5 mice/group) were given ad libitum each of the mixed feeds of Examples 1 to 3 and Comparative Examples 1 to 4 to breed them for 5 days.
as §2, with “measured by” for “measured in”, “the below-described method,” for “the same manner as in Example 1,”
Also, the difference between the blood glucose levels before the start of breeding with the mixed feed and after the breeding with the mixed feed (Δblood glucose level) was calculated using the following calculation formula.
Δ Blood glucose level (mg/dL)=Blood glucose level before the start of breeding with the mixed feed (mg/dL)−Blood glucose level after the breeding with the mixed feed (mg/dL)
as §1

[3] = level before minus level after 5 days of mixed feed

| SMILES | Blood glucose levels Before the start of breeding with the mixed feed ([1]; 20 weeks old, 10 a.m., average, baseline before mixed feed) | Blood glucose levels After the breeding with the mixed feed ([1]; high fat diet mixed feed ad libitum for 5 days, 10 a.m., average) | Δ Blood glucose level [1, 3] | Blood glucose levels Before the start of breeding with the mixed feed ([2]; 14 weeks old, 10 a.m., average, baseline before mixed feed) | Δ Blood glucose level [2, 3] | Blood glucose levels After the breeding with the mixed feed ([2]; mixed feed ad libitum for 5 days, 10 a.m., average) |
| --- | --- | --- | --- | --- | --- | --- |
| Cc1ncc(C[n+]2csc(CCO)c2C)c(N)n1.O=[N+]([O-])[O-] [compound 8, vitamin B1 nitrate] | 551 mg/dL | 501 mg/dL | 50 mg/dL |  |  |  |
| Cc1ncc(C[n+]2csc(CCO)c2C)c(N)n1.O=[N+]([O-])[O-] [compound 2, vitamin B1 nitrate] |  |  |  | 389.2 mg/dL | 43.9 mg/dL | 345.3 mg/dL |
